Data taken from ChEMBL document CHEMBL1201862, “PubChem BioAssay data set” (2004).
The source made the active and inactive calls.

Legend:
Genome polyprotein = Genome polyprotein (Hepatitis C virus, UniProt Q2Q167); assay: HCV core protein dimerization inhibitors, dose response, biochemical, TR-FRET (AID 2159); parameters: species or system Hepacivirus hominis;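 note: blocks dimerization of HCV core protein measured by TR-FRET between tagged core106 pairs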
[1] = biological target: T1, Sphingosine 1-phosphate receptor 2 (Homo sapiens, UniProt O95136); assay: Dose Response Cell Based Assay for Agonists of the S1P2 Receptor of Purchased Analogues. [Related pubchem assays: 729, 843, 854, 736 ]; format: functional
T1 sequence (O95136 whole entry): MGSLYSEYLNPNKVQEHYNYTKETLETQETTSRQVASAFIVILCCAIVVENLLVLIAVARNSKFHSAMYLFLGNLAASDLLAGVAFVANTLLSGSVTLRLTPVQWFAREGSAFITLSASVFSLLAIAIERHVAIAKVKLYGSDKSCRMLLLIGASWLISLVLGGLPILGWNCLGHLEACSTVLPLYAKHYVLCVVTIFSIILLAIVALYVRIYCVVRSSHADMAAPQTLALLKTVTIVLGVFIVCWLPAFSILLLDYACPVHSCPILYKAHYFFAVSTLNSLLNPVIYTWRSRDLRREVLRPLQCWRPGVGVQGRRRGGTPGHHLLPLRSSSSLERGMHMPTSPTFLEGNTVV

[2] = biological target: Epstein-Barr nuclear antigen 1 (Epstein-Barr virus (strain B95-8) (HHV-4) (Human herpesvirus 4), UniProt P03211); assay: EBNA-1 inhibitors, dose response, biochemical, fluorescence polarization, 1536-well (AID 2381); parameters: species or system human gammaherpesvirus 4;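 note: fluorescence polarization of a Cy5 DNA probe bound by EBNA-1 protein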
[3] = biological target: Lytic switch protein BZLF1 (Epstein-Barr virus (strain B95-8) (HHV-4) (Human herpesvirus 4), UniProt P03206); assay: EBV ZTA inhibitors, dose response, counter-screen for EBNA-1 inhibitor project, biochemical, fluorescence polarization, Epstein-Barr virus, 1536-well (AID 2377); parameters: species or system human gammaherpesvirus 4;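 note: fluorescence polarization of Cy5-labelled ZRE DNA probe bound by purified Zta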
Sequence of Lytic switch protein BZLF1 (P03206 whole entry): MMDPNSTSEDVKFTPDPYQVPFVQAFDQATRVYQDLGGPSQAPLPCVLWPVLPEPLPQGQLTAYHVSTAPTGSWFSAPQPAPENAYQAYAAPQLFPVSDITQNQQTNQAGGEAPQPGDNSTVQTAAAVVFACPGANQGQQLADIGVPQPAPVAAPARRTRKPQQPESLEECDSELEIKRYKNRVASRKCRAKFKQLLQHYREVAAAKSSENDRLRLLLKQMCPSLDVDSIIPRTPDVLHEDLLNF

[4] = Luminescence Cell-Based Dose Confirmation HTS to Identify Inhibitors of Platelet Dense Granule Release. [Related pubchem assays: 1663 (Primary HTS), 1678 (Summary of Project)]; format: functional
[5] = Fluorescence Cell-Based Dose Response to Identify Inhibitors of Thrombin Receptor-Activating Peptide SFLLRN-Mediated P-Selectin Induction on Platelets. [Related pubchem assays: 1663 (Primary HTS), 1889 (retest at dose ), 1891 (counterscreen), 1678 (Project Summary)]; format: functional
[6] = biological target: Luciferin 4-monooxygenase (Photinus pyralis, UniProt P08659); assay: firefly luciferase enzyme inhibitors, dose response, biochemical, luminescence (AID 1891)
Sequence of Luciferin 4-monooxygenase (P08659 whole entry): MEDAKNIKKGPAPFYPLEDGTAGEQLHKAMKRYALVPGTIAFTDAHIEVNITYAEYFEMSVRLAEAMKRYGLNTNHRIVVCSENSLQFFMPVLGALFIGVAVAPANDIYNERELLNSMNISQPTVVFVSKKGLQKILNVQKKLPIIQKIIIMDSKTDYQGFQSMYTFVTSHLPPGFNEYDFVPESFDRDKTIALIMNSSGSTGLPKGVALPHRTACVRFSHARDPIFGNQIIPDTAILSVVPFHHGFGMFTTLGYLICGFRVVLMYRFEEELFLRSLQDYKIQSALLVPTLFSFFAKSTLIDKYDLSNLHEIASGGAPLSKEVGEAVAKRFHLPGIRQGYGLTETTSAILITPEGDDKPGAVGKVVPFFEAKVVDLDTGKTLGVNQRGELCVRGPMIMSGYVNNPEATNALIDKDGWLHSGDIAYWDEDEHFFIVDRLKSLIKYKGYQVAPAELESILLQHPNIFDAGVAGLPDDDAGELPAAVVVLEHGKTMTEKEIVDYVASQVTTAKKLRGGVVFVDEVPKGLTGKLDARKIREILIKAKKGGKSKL

[7] = biological target: T2, E3 ubiquitin-protein ligase XIAP (Homo sapiens, UniProt P98170); assay: Counter Screen using XIAP-Bir3 for Chemical Antagonists of Bir1/2 domains of IAP-family anti-apoptotic proteins. [Related pubchem assays (depositor defined):AID1018, AID1449, AID1514, AID1638, AID1749, AID1750, AID488957, AID488963]
T2 sequence (P98170 whole entry): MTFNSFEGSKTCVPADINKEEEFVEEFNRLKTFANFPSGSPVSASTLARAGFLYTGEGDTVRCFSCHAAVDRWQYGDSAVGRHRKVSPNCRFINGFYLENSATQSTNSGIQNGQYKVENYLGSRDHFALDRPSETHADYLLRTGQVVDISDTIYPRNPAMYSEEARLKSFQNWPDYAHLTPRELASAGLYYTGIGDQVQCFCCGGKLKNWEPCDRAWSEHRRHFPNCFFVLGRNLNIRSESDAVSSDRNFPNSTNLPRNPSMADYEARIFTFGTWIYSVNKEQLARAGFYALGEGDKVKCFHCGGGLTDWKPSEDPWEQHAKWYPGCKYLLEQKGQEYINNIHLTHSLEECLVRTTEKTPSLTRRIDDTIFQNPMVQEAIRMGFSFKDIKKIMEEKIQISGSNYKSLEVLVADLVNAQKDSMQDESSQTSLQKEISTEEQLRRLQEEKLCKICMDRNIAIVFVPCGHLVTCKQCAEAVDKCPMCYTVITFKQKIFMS

[8] = biological target: T2, E3 ubiquitin-protein ligase XIAP; assay: XIAP antagonists, biochemical, IAP family, fluorescence polarization (AID 1018); format: functional
Ion channel NompC = Ion channel NompC (Danio rerio, UniProt Q7T1G6); assay: Fluorescence counterscreen assay for TRPML3 agonists: dose response cell-based high-throughput screening assay to identify agonists of the transient receptor potential channel N1 (TRPN1). [Related pubchem assays: 1526, 1424, 1448 ]; format: functional
Sequence of Ion channel NompC (Q7T1G6 whole entry): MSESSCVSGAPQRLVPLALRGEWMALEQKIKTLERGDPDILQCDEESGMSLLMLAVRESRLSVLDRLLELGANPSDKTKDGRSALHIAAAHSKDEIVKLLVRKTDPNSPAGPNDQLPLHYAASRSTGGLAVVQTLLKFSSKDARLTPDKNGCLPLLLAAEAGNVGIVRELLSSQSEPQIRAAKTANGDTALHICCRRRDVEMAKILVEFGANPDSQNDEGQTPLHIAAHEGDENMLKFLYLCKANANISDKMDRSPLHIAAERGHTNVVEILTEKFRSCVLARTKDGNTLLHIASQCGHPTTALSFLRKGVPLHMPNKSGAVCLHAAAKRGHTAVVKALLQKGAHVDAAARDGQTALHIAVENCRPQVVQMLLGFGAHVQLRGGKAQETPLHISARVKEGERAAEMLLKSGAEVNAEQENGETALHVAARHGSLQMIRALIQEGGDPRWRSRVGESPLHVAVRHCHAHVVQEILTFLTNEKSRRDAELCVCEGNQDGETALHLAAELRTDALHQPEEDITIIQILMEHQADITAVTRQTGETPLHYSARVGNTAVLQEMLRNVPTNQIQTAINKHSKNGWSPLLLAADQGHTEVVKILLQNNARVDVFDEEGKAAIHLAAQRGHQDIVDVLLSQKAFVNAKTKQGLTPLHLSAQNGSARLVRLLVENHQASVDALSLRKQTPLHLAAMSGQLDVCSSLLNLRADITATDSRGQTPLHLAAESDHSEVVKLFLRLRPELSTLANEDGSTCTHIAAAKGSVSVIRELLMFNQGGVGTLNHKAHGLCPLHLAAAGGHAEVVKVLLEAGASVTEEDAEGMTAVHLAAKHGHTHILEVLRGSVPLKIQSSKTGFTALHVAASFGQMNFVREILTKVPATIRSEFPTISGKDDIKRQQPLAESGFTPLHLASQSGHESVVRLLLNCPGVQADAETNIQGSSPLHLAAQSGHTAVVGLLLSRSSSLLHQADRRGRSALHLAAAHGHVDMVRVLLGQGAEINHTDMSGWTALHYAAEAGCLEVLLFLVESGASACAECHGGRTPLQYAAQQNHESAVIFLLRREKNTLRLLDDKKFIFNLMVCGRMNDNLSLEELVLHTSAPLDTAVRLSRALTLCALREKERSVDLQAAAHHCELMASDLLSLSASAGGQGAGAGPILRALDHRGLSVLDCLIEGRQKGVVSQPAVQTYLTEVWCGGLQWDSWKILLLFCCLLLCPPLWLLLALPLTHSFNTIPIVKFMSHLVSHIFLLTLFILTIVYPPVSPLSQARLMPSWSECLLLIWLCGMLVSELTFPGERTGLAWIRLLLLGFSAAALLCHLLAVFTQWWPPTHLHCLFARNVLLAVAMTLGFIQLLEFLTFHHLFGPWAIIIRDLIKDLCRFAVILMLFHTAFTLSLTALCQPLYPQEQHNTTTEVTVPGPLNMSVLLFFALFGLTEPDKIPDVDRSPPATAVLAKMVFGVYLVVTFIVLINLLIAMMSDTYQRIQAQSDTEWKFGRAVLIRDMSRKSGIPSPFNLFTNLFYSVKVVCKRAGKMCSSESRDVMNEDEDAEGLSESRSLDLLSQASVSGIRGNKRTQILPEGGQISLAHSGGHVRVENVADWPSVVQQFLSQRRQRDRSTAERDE

Mucolipin-3 = Mucolipin-3 (Homo sapiens, UniProt Q8TDD5); assay: Dose response cell-based high-throughput screening assay for agonists of the transient receptor potential channel ML3 (TRPML3). [Related pubchem assays: 1526, 1424, 1448 ]; format: functional
Sequence of Mucolipin-3 (Q8TDD5 whole entry): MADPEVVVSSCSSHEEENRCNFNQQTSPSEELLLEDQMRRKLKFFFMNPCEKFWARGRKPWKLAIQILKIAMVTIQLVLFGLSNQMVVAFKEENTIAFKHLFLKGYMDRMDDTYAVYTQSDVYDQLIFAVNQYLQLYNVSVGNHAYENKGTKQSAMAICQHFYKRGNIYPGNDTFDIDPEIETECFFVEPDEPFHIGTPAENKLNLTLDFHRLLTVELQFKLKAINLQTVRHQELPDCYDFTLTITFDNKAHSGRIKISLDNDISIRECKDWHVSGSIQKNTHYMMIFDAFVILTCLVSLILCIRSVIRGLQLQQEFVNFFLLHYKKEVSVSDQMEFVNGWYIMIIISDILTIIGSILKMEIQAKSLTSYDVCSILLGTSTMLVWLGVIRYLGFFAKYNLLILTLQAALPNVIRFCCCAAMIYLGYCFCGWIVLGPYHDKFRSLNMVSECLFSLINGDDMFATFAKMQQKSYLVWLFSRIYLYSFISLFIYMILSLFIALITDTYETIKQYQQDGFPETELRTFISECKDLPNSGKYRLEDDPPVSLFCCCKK

[9] = biological target: T3, Neuropeptide Y receptor type 1 (Homo sapiens, UniProt P25929); assay: NPY-Y1 receptor antagonist potency, dose response, cell-based (AID 1277); format: functional
T3 sequence (P25929 whole entry): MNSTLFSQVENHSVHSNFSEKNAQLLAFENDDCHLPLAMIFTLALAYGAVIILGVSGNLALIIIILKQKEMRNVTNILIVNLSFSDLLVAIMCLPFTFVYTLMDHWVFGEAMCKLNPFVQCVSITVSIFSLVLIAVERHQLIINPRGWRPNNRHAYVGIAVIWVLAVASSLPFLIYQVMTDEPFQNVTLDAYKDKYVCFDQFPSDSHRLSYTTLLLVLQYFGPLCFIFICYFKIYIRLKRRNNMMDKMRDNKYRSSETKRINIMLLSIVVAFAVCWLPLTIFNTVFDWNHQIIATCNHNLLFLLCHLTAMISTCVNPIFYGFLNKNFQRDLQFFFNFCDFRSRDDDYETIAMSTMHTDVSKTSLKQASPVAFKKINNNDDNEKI

[10] = biological target: T4, Neuropeptide Y receptor type 2 (Homo sapiens, UniProt P49146); assay: NPY-Y2 antagonist potency, selectivity check, dose response, counter-screen for NPY-Y1 antagonist project, cell-based (AID 1278); format: functional
T4 sequence (P49146 whole entry): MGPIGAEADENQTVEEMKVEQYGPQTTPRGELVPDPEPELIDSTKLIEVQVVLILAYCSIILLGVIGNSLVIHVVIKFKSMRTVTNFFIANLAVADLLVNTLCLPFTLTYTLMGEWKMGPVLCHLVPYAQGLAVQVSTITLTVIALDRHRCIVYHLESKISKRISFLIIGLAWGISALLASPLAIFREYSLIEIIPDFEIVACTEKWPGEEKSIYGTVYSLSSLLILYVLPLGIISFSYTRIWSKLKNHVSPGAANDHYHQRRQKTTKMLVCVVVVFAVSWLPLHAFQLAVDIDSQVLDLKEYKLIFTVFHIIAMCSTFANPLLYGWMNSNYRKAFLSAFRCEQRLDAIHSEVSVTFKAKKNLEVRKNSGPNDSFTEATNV

[11] = biological target: T5, Rac GTPase-activating protein 1 (Homo sapiens, UniProt Q9H0H5); assay: MgcRacGAP GTPase-activating activity inhibitors, confirmation, biochemical, ADP Hunter fluorescence, primary and confirmatory (AID 624330); format: functional
T5 sequence (Q9H0H5 whole entry): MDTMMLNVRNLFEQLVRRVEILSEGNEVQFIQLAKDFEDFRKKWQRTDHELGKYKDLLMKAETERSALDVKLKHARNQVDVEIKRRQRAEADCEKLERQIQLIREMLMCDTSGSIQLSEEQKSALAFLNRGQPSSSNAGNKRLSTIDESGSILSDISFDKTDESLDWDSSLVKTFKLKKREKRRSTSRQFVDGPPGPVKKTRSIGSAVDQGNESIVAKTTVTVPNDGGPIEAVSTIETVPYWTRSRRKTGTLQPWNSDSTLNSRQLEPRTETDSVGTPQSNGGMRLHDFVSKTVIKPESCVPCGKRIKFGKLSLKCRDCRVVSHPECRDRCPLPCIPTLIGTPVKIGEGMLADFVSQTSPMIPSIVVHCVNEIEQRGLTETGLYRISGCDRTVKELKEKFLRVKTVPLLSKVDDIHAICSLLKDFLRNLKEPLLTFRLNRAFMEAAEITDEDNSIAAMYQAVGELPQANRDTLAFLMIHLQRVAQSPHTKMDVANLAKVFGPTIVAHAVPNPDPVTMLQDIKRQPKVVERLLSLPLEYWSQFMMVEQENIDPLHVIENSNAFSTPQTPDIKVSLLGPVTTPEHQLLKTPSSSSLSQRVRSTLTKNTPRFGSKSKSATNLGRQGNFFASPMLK

[12] = A High Throughput Confirmatory Assay used to Identify Novel Compounds that Inhibit Mycobacterium Tuberculosis in the absence of Glycerol.; format: functional
[13] = biological target: T1, Sphingosine 1-phosphate receptor 2; assay: Dose Response Cell-Based Assay for Agonists of the Sphingosine 1-Phosphate Receptor 2 (S1P2): Purchased Analogues. [Related pubchem assays: 1192, 373, 439 ]; format: functional
[14] = biological target: Sphingosine 1-phosphate receptor 1 (Homo sapiens, UniProt P21453); assay: Dose Response Cell-Based Assay for Agonists of the Sphingosine 1-Phosphate Receptor 1 (S1P1): Purchased Analogues. [Related pubchem assays: 1192, 373, 439 ]; format: functional
[15] = biological target: Sphingosine 1-phosphate receptor 3 (Homo sapiens, UniProt Q99500); assay: Dose Response Cell-Based Assay for Agonists of the Sphingosine 1-Phosphate Receptor 3 (S1P3): Purchased Analogues. [Related pubchem assays: 373, 439 ]; format: functional
[16] = biological target: T6, Tyrosine-protein phosphatase non-receptor type 7 (Homo sapiens, UniProt P35236); assay: inhibitors of human HePTP phosphatase, […], biochemical, absorbance, leukemia target (AID 521); format: functional
T6 sequence (P35236 whole entry): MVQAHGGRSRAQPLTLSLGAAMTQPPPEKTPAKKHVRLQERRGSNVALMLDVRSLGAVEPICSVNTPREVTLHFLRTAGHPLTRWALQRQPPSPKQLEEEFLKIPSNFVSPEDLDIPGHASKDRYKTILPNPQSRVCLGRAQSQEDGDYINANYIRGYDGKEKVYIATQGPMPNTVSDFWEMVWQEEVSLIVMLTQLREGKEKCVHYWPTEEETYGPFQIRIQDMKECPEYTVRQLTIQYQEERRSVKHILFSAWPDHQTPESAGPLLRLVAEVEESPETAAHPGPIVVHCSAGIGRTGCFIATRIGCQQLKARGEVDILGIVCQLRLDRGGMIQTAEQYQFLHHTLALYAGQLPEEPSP

Bcl-2-like protein 1 = Bcl-2-like protein 1 (Homo sapiens, UniProt Q07817); assay: BCL-XL inhibitors, dose response, selectivity assay for MCL1 inhibitor project, biochemical, fluorescence polarization, 1536-well (AID 2218)
Sequence of Bcl-2-like protein 1 (Q07817 whole entry): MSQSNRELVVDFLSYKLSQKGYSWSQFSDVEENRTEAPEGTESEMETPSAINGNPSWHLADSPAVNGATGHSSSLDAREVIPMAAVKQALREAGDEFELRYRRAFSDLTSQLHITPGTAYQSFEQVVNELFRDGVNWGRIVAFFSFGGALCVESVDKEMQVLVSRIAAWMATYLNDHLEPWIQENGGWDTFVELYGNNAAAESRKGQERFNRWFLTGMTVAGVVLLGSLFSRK

[17] = C. albicans growth with fluconazole, confirmation, fluorescence, retest (AID 2467); format: functional, cell-based
[18] = biological target: Induced myeloid leukemia cell differentiation protein Mcl-1 (Homo sapiens, UniProt Q07820); assay: MCL1-BIM BH3 interaction inhibitors, dose response, biochemical, fluorescence polarization, BIM-BH3 peptide, 1536-well (AID 2217)
Sequence of Induced myeloid leukemia cell differentiation protein Mcl-1 (Q07820 whole entry): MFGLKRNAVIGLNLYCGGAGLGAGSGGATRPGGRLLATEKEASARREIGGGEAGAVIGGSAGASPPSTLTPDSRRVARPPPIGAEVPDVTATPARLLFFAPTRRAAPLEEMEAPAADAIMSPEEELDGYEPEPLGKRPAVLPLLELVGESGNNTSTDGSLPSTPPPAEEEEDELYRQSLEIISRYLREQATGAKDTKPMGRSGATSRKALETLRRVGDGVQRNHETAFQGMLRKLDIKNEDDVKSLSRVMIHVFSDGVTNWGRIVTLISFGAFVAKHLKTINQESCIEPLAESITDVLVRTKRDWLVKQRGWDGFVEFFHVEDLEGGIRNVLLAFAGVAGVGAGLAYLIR

[19] = NIH-3T3 fibroblast cytotoxicity, dose response, cytotoxicity control, cell-based, fluorescence, Alamar Blue, secondary assay (AID 2327); format: functional;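 note: NIH-3T3 mouse fibroblasts cultured with fluconazole at 8 µg/mL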
Estrogen receptor = biological target: T7, Estrogen receptor (Homo sapiens, UniProt P03372);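 note: potency for inhibiting coactivator peptide recruitment to the receptor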
T7 sequence (P03372 whole entry): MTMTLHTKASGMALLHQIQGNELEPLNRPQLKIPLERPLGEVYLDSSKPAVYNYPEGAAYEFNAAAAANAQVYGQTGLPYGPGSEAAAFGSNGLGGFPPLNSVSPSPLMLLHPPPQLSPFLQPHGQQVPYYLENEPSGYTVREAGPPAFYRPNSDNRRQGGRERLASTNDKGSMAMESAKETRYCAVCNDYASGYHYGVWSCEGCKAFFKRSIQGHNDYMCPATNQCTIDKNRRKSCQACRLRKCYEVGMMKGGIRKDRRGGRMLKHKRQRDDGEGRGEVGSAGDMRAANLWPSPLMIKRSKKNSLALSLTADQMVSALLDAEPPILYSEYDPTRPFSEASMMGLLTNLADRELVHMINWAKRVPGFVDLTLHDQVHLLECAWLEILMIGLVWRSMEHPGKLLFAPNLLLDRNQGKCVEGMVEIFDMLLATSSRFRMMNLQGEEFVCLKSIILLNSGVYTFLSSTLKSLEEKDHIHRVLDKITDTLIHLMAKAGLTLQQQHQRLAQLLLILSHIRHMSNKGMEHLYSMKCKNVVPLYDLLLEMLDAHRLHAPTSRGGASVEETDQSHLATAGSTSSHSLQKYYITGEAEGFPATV

Estrogen receptor beta [20] = biological target: T8, Estrogen receptor beta (Homo sapiens, UniProt Q92731); assay: ERβ–SRC-3 coactivator interaction inhibitors, confirmation, orthogonal assay, biochemical, ELISA, streptavidin-HRP readout (AID 1060)
T8 sequence (Q92731 whole entry): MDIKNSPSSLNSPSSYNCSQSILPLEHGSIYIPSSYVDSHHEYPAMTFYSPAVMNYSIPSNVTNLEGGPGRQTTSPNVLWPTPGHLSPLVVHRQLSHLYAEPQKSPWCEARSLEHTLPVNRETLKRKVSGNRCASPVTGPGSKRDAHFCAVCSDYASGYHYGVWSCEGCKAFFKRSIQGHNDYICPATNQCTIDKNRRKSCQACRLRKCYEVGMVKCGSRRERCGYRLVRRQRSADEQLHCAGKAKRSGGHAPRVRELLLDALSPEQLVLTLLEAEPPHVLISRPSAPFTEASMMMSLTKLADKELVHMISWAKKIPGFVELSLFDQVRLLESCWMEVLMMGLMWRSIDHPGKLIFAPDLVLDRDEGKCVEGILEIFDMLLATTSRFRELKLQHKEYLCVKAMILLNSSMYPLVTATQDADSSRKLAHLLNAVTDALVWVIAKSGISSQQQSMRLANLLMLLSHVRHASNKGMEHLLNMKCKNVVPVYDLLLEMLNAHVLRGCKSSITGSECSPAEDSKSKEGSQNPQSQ

Estrogen receptor beta [21] = biological target: T8, Estrogen receptor beta
[22] = cytotoxicity toward NIH3T3 fibroblasts, dose response, counter-screen, cell-based, ATP luminescence, mouse fibroblasts (AID 2010); format: functional;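 note: cells exposed to compound for about 90 hours before reading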
[23] = growth suppression of beta-catenin-knockout colon cells, dose response, cell-based, HCT116, human colon tumor (AID 1045); format: functional;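 note: HCT116 colon tumor cells with beta catenin knocked out; cells exposed to compound for 60 hours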
[24] = cytotoxicity in KRAS-transformed pancreatic duct cells, primary screen, cell-based, fluorescence, HTS (AID 431); format: functional; conditions: Homo sapiens;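 note: cell line used: HPDE-C7K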
[25] = inhibitors of intracellular T. cruzi replication, confirmation, NIH3T3 host cells, beta-gal luminescence (AID 2044); format: functional, cell-based;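 note: intracellular parasites grown in NIH/3T3 mouse fibroblasts as host cells; luminescent beta-galactosidase reporter signal from transgenic T. cruzi replicating inside host cells; inhibitors lower the luminescence signal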
[26] = cytotoxicity in HEK-293T cells, dose response, cytotoxicity control for BCR NF-kB inhibitor project, luminescence, B-cell screen hits (AID 489021); format: functional, cell-based;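 note: HEK-293T cells carrying an NF-kB luciferase reporter; cells exposed to compound for about 14 hours before viability readout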
[27] = growth suppression of PTEN-null colon cells, dose response, cell-based, HCT116 PTEN knockout (AID 1047); format: functional;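 note: HCT116 colon tumor cells with PTEN knocked out; cells exposed to compound for 60 hours before readout; potency for loss of cell viability measured by luminescence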
[28] = microbe, parasite or virus in culture; format: functional; conditions: Mycobacterium tuberculosis
[29] = cytotoxicity in HPDE-C7 cells, cell-based, fluorescence, HTS (AID 430); format: functional; conditions: Homo sapiens

Compound: Cc1ccc(OCC(=O)Nc2nnc(S(=O)(=O)N3CCC(C)CC3)s2)cc1
- IC50 (Genome polyprotein): > 49.8 µM (not active)

Compound: COc1ccc(C(N)=O)c(OCC(=O)c2cc(C)n(Cc3ccccc3)c2C)c1
- EC50 [1]: > 30 µM (not active)

Compound: COc1ccc(CN=C(S)N2CCN(S(=O)(=O)c3cccc(F)c3)CC2)cc1
- IC50 [2]: 5.94 µM (active)
- IC50 [3]: > 111 µM (not active)

Compound: COc1cc2c(cc1OC)C(/C=C(\O)c1ccc(NC(C)=O)cc1)=NCC2
- EC50 [4]: 3.33 µM (active)
- EC50 [5]: < 0.3 µM (active)
- EC50 [6]: > 112 µM (not active)

Compound: COc1ccc(C(=O)C2=C(O)C(=O)N(CC3CCCO3)C2c2cccc(OC)c2)cc1 (centres undefined)
- IC50 [7]: > 100 µM (inactive)
- IC50 [8]: > 100 µM (not active)

Compound: CN(C1CCCCC1)S(=O)(=O)c1cccc(C(=O)OCC(=O)NC2CCCc3ccccc32)c1 (centres undefined)
- EC50 (Ion channel NompC): > 29.9 µM (not active)
- EC50 (Mucolipin-3): 2.86 µM (active)

Compound: COc1ccc(Oc2c(C)n[nH]c2-c2ccc(O)cc2O)cc1
- IC50 [9]: > 35 µM (not active)
- IC50 [10]: > 35 µM (not active)
- IC50 [11]: 47.4 µM (active)

Compound: O=C(CCN1C(=O)/C(=C/c2ccccc2)SC1=S)Nc1ccccn1
- IC50 [12]: > 100 µM (active)

Compound: NC(=O)C1CCN(C(=O)c2cc(-c3ccccc3)on2)CC1
- EC50 [13]: > 10 µM (not active)
- EC50 [14]: > 50 µM (not active)
- EC50 [15]: > 50 µM (not active)

Compound: CC(NC(N)=O)C12CC3CC(CC(C3)C1)C2 (centres undefined)
- IC50 [16]: > 100 µM (not active)

Compound: C=CCc1cccc(/C=N/NC(=O)CNc2cccc3ccccc23)c1O
- IC50 (Bcl-2-like protein 1): > 109 µM (not active)
- EC50 [17]: 3.28 µM (active)
- IC50 [18]: > 109 µM (not active)
- EC50 [19]: > 150 µM (inactive)

Compound: Cc1cc(C)c(S(=O)(=O)/N=C2\C=CC(=O)C(Cl)=C2)c(C)c1
- IC50 (Estrogen receptor): 10.3 µM (active)
- IC50 (Estrogen receptor beta [20]): 16.5 µM (not active)
- IC50 (Estrogen receptor beta [21]): 4.69 µM (active)

Compound: CCC(C)NC(=O)c1c(N)n(/N=C/c2ccccn2)c2nc3ccccc3nc12 (centres undefined)
- EC50 [22]: > 30 µM (not active)
- EC50 [23]: 30.2 µM (active)
- EC50 [24]: 6.39 µM (active)
- EC50 [25]: 2.18 µM (active)
- IC50 [26]: 43.2 µM (inactive)
- EC50 [27]: 32.3 µM (active)
- CC50 [28]: > 40 µM (active)
- EC50 [29]: 4.73 µM (active)
